Results taken from ChEMBL document CHEMBL4229379, “Synthesis and structure-activity relationship of novel bisindole amidines active against MDR Gram-positive and Gram-negative bacteria” (Eur J Med Chem, 2018).
≈ marks a conversion by molar mass, not a printed value.

How the values were obtained:
[1] = system: Staphylococcus epidermidis; test: Antibacterial activity against methicillin-sensitive Staphylococcus epidermidis ATCC 12228 after 18 hrs by CLSI broth microdilution method; type: functional; conditions: ATCC 12228, 18 h
[2] = system: Staphylococcus epidermidis; test: Antibacterial activity against methicillin-resistant Staphylococcus epidermidis 12-8 after 18 hrs by CLSI broth microdilution method; type: functional; conditions: 12-8, 18 h
Staphylococcus aureus [3] = test: Antibacterial activity against methicillin-sensitive Staphylococcus aureus ATCC 29213 after 18 hrs by CLSI broth microdilution method; type: functional; conditions: ATCC 29213, 18 h
Staphylococcus aureus [4] = test: Antibacterial activity against methicillin-resistant Staphylococcus aureus 12-33 after 18 hrs by CLSI broth microdilution method; type: functional; conditions: 12-33, 18 h
Enterococcus faecalis [5] = test: Antibacterial activity against vancomycin-sensitive Enterococcus faecalis ATCC 29212 after 18 hrs by CLSI broth microdilution method; type: functional; conditions: ATCC 29212, 18 h
Enterococcus faecalis [6] = test: Antibacterial activity against vancomycin-resistant Enterococcus faecalis 09-9 after 18 hrs by CLSI broth microdilution method; type: functional; conditions: 09-9, 18 h
Enterococcus faecium [7] = test: Antibacterial activity against vancomycin-resistant Enterococcus faecium ATCC 700221 after 18 hrs by CLSI broth microdilution method; type: functional; conditions: ATCC 700221, 18 h
Enterococcus faecium [8] = test: Antibacterial activity against vancomycin-sensitive Enterococcus faecium 12-3 after 18 hrs by CLSI broth microdilution method; type: functional; conditions: 12-3, 18 h
Escherichia coli [9] = test: Antibacterial activity against extended-spectrum beta-lactamase deficient Escherichia coli ATCC 25922 after 18 hrs by CLSI broth microdilution method; type: functional; conditions: ATCC 25922, 18 h
Escherichia coli [10] = test: Antibacterial activity against extended-spectrum beta-lactamase harboring Escherichia coli 12-15 after 18 hrs by CLSI broth microdilution method; type: functional; conditions: 12-15, 18 h
Klebsiella pneumoniae [11] = test: Antibacterial activity against extended-spectrum beta-lactamase harboring Klebsiella pneumoniae ATCC 700603 after 18 hrs by CLSI broth microdilution method; type: functional; conditions: Klebsiella pneumoniae, 700603, 18 h
Klebsiella pneumoniae [12] = test: Antibacterial activity against new delhi metallo-beta-lactamase-1 harboring Klebsiella pneumoniae ATCC BAA-2146 after 18 hrs by CLSI broth microdilution method; type: functional; conditions: ATCC BAA-2146, 18 h
Klebsiella pneumoniae [13] = test: Antibacterial activity against extended-spectrum beta-lactamase harboring Klebsiella pneumoniae 12-8 after 18 hrs by CLSI broth microdilution method; type: functional; conditions: 12-8, 18 h
Pseudomonas aeruginosa [14] = test: Antibacterial activity against Pseudomonas aeruginosa ATCC 27853 after 18 hrs by CLSI broth microdilution method; type: functional; conditions: ATCC 27853, 18 h
[15] = system: Acinetobacter calcoaceticus; test: Antibacterial activity against Acinetobacter calcoaceticus ATCC 19606 after 18 hrs by CLSI broth microdilution method; type: functional; conditions: ATCC 19606, 18 h
Enterobacter cloacae = test: Antibacterial activity against Enterobacter cloacae ATCC 43560 after 18 hrs by CLSI broth microdilution method; type: functional; conditions: ATCC 43560, 18 h
Proteus mirabilis = test: Antibacterial activity against Proteus mirabilis 12-6 after 18 hrs by CLSI broth microdilution method; type: functional; conditions: 12-6, 18 h
[16] = Cytotoxicity against HEK293T cells assessed as reduction in cell viability after 48 hrs by MTS assay; type: cell-based, HEK-293T; conditions: human
[17] = system: Staphylococcus epidermidis; test: Antibacterial activity against methicillin-sensitive Staphylococcus epidermidis 12-6 after 18 hrs by CLSI broth microdilution method; type: functional; conditions: 12-6, 18 h
Staphylococcus aureus [18] = test: Antibacterial activity against methicillin-resistant Staphylococcus aureus ATCC 33591 after 18 hrs by CLSI broth microdilution method; type: functional; conditions: ATCC 33591, 18 h
Staphylococcus aureus [19] = test: Antibacterial activity against methicillin-sensitive Staphylococcus aureus 15 after 18 hrs by CLSI broth microdilution method; type: functional; conditions: Staphylococcus aureus, 15, 18 h
Staphylococcus aureus [20] = test: Antibacterial activity against methicillin-sensitive Staphylococcus aureus 12-28 after 18 hrs by CLSI broth microdilution method; type: functional; conditions: 12-28, 18 h
Enterococcus faecalis [21] = test: Antibacterial activity against vancomycin-resistant Enterococcus faecalis ATCC 51299 after 18 hrs by CLSI broth microdilution method; type: functional; conditions: ATCC 51299, 18 h
Enterococcus faecalis [22] = test: Antibacterial activity against vancomycin-sensitive Enterococcus faecalis 12-5 after 18 hrs by CLSI broth microdilution method; type: functional; conditions: 12-5, 18 h
Enterococcus faecium [23] = test: Antibacterial activity against vancomycin-resistant Enterococcus faecium 12-1 after 18 hrs by CLSI broth microdilution method; type: functional; conditions: 12-1, 18 h
Escherichia coli [24] = test: Antibacterial activity against extended-spectrum beta-lactamase deficient Escherichia coli 1515 after 18 hrs by CLSI broth microdilution method; type: functional; conditions: Escherichia coli, 1515, 18 h
Escherichia coli [25] = test: Antibacterial activity against extended-spectrum beta-lactamase deficient Escherichia coli 12-14 after 18 hrs by CLSI broth microdilution method; type: functional; conditions: 12-14, 18 h
Klebsiella pneumoniae [26] = test: Antibacterial activity against extended-spectrum beta-lactamase deficient Klebsiella pneumoniae 7 after 18 hrs by CLSI broth microdilution method; type: functional; conditions: Klebsiella pneumoniae, 7, 18 h
Klebsiella pneumoniae [27] = test: Antibacterial activity against extended-spectrum beta-lactamase deficient Klebsiella pneumoniae 12-4 after 18 hrs by CLSI broth microdilution method; type: functional; conditions: 12-4, 18 h
Pseudomonas aeruginosa [28] = test: Antibacterial activity against Pseudomonas aeruginosa PAO1 after 18 hrs by CLSI broth microdilution method; type: functional; conditions: PAO1, 18 h
Pseudomonas aeruginosa [29] = test: Antibacterial activity against Pseudomonas aeruginosa 12-16 after 18 hrs by CLSI broth microdilution method; type: functional; conditions: 12-16, 18 h
Klebsiella aerogenes = test: Antibacterial activity against Enterobacter aerogenes ATCC 13048 after 18 hrs by CLSI broth microdilution method; type: functional; conditions: ATCC 13048, 18 h
Serratia marcescens = test: Antibacterial activity against Serratia marcescens ATCC 21074 after 18 hrs by CLSI broth microdilution method; type: functional; conditions: ATCC 21074, 18 h
Providencia rettgeri = test: Antibacterial activity against Providencia rettgeri ATCC 31052 after 18 hrs by CLSI broth microdilution method; type: functional; conditions: ATCC 31052, 18 h
Proteus vulgaris = test: Antibacterial activity against Proteus vulgaris ATCC 29905 after 18 hrs by CLSI broth microdilution method; type: functional; conditions: ATCC 29905, 18 h
[30] = system: Stenotrophomonas maltophilia; test: Antibacterial activity against Stenotrophomonas maltophilia ATCC 13636 after 18 hrs by CLSI broth microdilution method; type: functional; conditions: ATCC 13636, 18 h
Citrobacter freundii = test: Antibacterial activity against Citrobacter freundii ATCC 43864 after 18 hrs by CLSI broth microdilution method; type: functional; conditions: ATCC 43864, 18 h

Row | Compound | MIC [1] [µg/mL] | MIC [2] [µg/mL] | MIC (Staphylococcus aureus [3]) [µg/mL] | MIC (Staphylococcus aureus [4]) [µg/mL] | MIC (Enterococcus faecalis [5]) [µg/mL] | MIC (Enterococcus faecalis [6]) [µg/mL] | MIC (Enterococcus faecium [7]) [µg/mL] | MIC (Enterococcus faecium [8]) [µg/mL] | MIC (Escherichia coli [9]) [µg/mL] | MIC (Escherichia coli [10]) [µg/mL] | MIC (Klebsiella pneumoniae [11]) [µg/mL] | MIC (Klebsiella pneumoniae [12]) [µg/mL] | MIC (Klebsiella pneumoniae [13]) [µg/mL] | MIC (Pseudomonas aeruginosa [14]) [µg/mL] | MIC [15] [µg/mL] | MIC (Enterobacter cloacae) [µg/mL] | MIC (Proteus mirabilis) [µg/mL] | CC50 at 48 h [16] [µg/mL] | MIC [17] [µg/mL] | MIC (Staphylococcus aureus [18]) [µg/mL] | also measured
1 | CN(C)C(=N)c1ccc2cc(-c3cccc(-c4cc5ccc(C(=N)N(C)C)cc5[nH]4)c3)[nH]c2c1 | 8 (≈ 17.8 µM) | 16 (≈ 35.7 µM) | 8 (≈ 17.8 µM) | 8 (≈ 17.8 µM) | 64 (≈ 143 µM) | 64 (≈ 143 µM) | 16 (≈ 35.7 µM) | > 128 | 64 (≈ 143 µM) | 64 (≈ 143 µM) | > 128 | > 128 | > 128 | > 128 | > 128 | > 128 | > 128 | 52.2 (≈ 116 µM) | 32 (≈ 71.3 µM) | 4 (≈ 8.92 µM) | MIC (Staphylococcus aureus [19]): 4 µg/mL (≈ 8.92 µM); MIC (Staphylococcus aureus [20]): 4 µg/mL (≈ 8.92 µM); MIC (Enterococcus faecalis [21]): 128 µg/mL (≈ 285 µM); MIC (Enterococcus faecalis [22]): > 128 µg/mL; MIC (Enterococcus faecium [23]): 8 µg/mL (≈ 17.8 µM); MIC (Escherichia coli [24]): 64 µg/mL (≈ 143 µM); MIC (Escherichia coli [25]): 64 µg/mL (≈ 143 µM); MIC (Klebsiella pneumoniae [26]): > 128 µg/mL; MIC (Klebsiella pneumoniae [27]): > 128 µg/mL; MIC (Pseudomonas aeruginosa [28]): > 128 µg/mL; MIC (Pseudomonas aeruginosa [29]): > 128 µg/mL; MIC (Klebsiella aerogenes): > 128 µg/mL; MIC (Serratia marcescens): > 128 µg/mL; MIC (Providencia rettgeri): 128 µg/mL (≈ 285 µM); MIC (Proteus vulgaris): > 128 µg/mL; MIC [30]: > 128 µg/mL; MIC (Citrobacter freundii): > 128 µg/mL
2 | CCC(CC)NC(=N)c1ccc2cc(-c3ccc(-c4cc5ccc(C(=N)NC(CC)CC)cc5[nH]4)cc3)[nH]c2c1 | 0.5 (≈ 0.939 µM) | 0.5 (≈ 0.939 µM) | 1 (≈ 1.88 µM) | 1 (≈ 1.88 µM) | 2 (≈ 3.75 µM) | 4 (≈ 7.51 µM) | 2 (≈ 3.75 µM) | 2 (≈ 3.75 µM) | 8 (≈ 15 µM) | 8 (≈ 15 µM) | 16 (≈ 30 µM) | 8 (≈ 15 µM) | 8 (≈ 15 µM) | 16 (≈ 30 µM) | 16 (≈ 30 µM) | 8 (≈ 15 µM) | 16 (≈ 30 µM) | 3.42 (≈ 6.41 µM) | 0.5 (≈ 0.939 µM) | 1 (≈ 1.88 µM) | MIC (Staphylococcus aureus [19]): 2 µg/mL (≈ 3.75 µM); MIC (Staphylococcus aureus [20]): 2 µg/mL (≈ 3.75 µM); MIC (Enterococcus faecalis [21]): 4 µg/mL (≈ 7.51 µM); MIC (Enterococcus faecalis [22]): 4 µg/mL (≈ 7.51 µM); MIC (Enterococcus faecium [23]): 2 µg/mL (≈ 3.75 µM); MIC (Escherichia coli [24]): 8 µg/mL (≈ 15 µM); MIC (Escherichia coli [25]): 8 µg/mL (≈ 15 µM); MIC (Klebsiella pneumoniae [26]): 8 µg/mL (≈ 15 µM); MIC (Klebsiella pneumoniae [27]): 8 µg/mL (≈ 15 µM); MIC (Pseudomonas aeruginosa [28]): 64 µg/mL (≈ 120 µM); MIC (Pseudomonas aeruginosa [29]): 32 µg/mL (≈ 60.1 µM); MIC (Klebsiella aerogenes): 8 µg/mL (≈ 15 µM); MIC (Serratia marcescens): 32 µg/mL (≈ 60.1 µM); MIC (Providencia rettgeri): 8 µg/mL (≈ 15 µM); MIC (Proteus vulgaris): 8 µg/mL (≈ 15 µM); MIC [30]: 16 µg/mL (≈ 30 µM); MIC (Citrobacter freundii): 8 µg/mL (≈ 15 µM)
